The record followed here is ChEMBL document CHEMBL1914338, “Tricyclic series of heat shock protein 90 (Hsp90) inhibitors part I: discovery of tricyclic imidazo[4,5-c]pyridines as potent inhibitors of the Hsp90 molecular chaperone” (J Med Chem, 2011).

In assay [1] the target is T1, Heat shock protein HSP 90-beta (Homo sapiens, UniProt P08238).
Description: Inhibition of human Hsp90beta after overnight incubation by fluorescence polarization assay
Assay [2] deals with T1, Heat shock protein HSP 90-beta. This is another data set of the same source.
Description: Inhibition of HSP90beta in human SKBR3 cells assessed as down regulation of HER2 expression levels after 24 hrs by FACS analysis
Assay [3] concerns P388. Nature of the assay: Antitumor activity in mouse P388 cells xenografted in B6D2F1 mouse assessed as increase in mouse life span at 80 mg/kg/day, ip for 4 days relative to control. It counts as functional. Conditions: route intraperitoneal.
Assay [4] relates to P388. Nature of the assay: Antitumor activity in mouse P388 cells xenografted in B6D2F1 mouse assessed as median day of death at 80 mg/kg/day, ip for 4 days (reference value: 10 days). It counts as functional. The following applies: route intraperitoneal.
For assay [5], the target named is T1, Heat shock protein HSP 90-beta. This is another data set of the same source.
Description: Binding affinity to human Hsp90beta assessed as association constant after overnight incubation by fluorescence polarization assay

Structures are written as SMILES.

T1 sequence (P08238 whole entry): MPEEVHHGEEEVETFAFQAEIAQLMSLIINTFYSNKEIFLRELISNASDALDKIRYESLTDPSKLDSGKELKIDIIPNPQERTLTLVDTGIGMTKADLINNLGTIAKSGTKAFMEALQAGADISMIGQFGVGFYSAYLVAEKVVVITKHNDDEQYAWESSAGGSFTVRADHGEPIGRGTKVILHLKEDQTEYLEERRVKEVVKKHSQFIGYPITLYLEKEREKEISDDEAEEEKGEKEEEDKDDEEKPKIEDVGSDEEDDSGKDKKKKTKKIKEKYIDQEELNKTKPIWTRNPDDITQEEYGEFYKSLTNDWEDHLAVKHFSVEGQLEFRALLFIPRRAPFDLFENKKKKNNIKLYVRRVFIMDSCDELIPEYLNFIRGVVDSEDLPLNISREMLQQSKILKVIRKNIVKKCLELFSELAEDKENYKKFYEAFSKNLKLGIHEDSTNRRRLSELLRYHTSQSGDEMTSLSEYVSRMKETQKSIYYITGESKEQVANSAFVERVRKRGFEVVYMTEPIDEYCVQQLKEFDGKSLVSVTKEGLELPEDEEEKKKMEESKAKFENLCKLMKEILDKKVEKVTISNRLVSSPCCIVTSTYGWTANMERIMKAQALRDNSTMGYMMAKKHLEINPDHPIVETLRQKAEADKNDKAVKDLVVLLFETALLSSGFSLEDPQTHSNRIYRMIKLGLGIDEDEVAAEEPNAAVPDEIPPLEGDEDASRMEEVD

In the case of `Cc1onc(-c2ccc(O)cc2O)c1-c1ccccc1`, in assay [1], the IC50 amounted to 7.6 µM. As for `O=C1c2ccccc2C2=C(c3nc4ccncc4[nH]3)CCCN12`, in assay [2], the half-inhibitory concentration (IC50) is > 50 µM. The same measure, in the same setting: under `O=C1c2ccccc2-c2c1cccc2-c1nc2cnccc2[nH]1` stands > 50 µM.

In assay [2], `NC(=O)CCC(=O)NC1c2ccccc2-c2c(-c3nc4cnccc4[nH]3)cccc21` (racemic) returned an IC50 of 50 µM.

Compound `O=C(NC1c2ccccc2-c2c(-c3nc4ccncc4[nH]3)cccc21)c1ccncc1` (racemic) displayed an IC50 in assay [2] of 1.3 µM.

Take `O=C(NC1c2ccccc2-c2c(-c3nc4ccccc4[nH]3)cccc21)c1cccc2ncccc12` (racemic): the IC50 in assay [2] is 1.3 µM.

In the case of `Nc1cc(C(=O)NC2c3ccccc3-c3c(-c4nc5ccncc5[nH]4)cccc32)ccn1` (racemic), the IC50 in assay [2] amounted to 0.9 µM. Consider `C=CCNC1=C2C[C@@H](C)C[C@H](OC)[C@H](O)[C@@H](C)/C=C(\C)[C@H](OC(N)=O)[C@@H](OC)/C=C\C=C(/C)C(=O)NC(=CC1=O)C2=O` [TANESPIMYCIN], for which the Activity in assay [3] amounted to 30%. Besides, in assay [4], the Time turned out to be 13 days. In addition, in assay [5], the Ka is 1.2 ×10⁴ /M/s.

By IC50 is commonly meant the concentration needed to halve the response being measured. Lower therefore signals higher potency.
